Measurements reported in patent US20030190334A1, “Low dose liquid entecavir formulations and use” (priority 2002, published 2003).

Assay: Reaction of entecavir with sweetener or flavoring agent that contains aldehyde and/or ketone groups
Assay type: physicochemical
Excerpt: While entecavir is potent, it is also extremely bitter. To combat the bitterness, a sweetener is generally used. However, entecavir has shown a tendency to react with commonly used sweeteners, such as sucrose, creating stability concerns. Entecavir has a primary amine group in its structure that has the propensity to react with any sweetener or flavoring agent that contains aldehyde and/or ketone groups.

reaction with sweetener or flavoring agent that contains aldehyde and/or ketone groups (pH 5 to 7): minimized
reaction with sweetener or flavoring agent that contains aldehyde and/or ketone groups (weakly acidic pH (pH 3 to 4)): more pronounced
Compound: C=C1[C@H](CO)[C@@H](O)C[C@@H]1n1cnc2c(=O)[nH]c(N)nc21 [Entecavir, [1S-(1α,3α,4β)]-2-amino-1,9-dihydro-9-[4-hydroxy-3-(hydroxymethyl)-2-methylenecyclopentyl]-6H-purin-6-one]
